Laboratory results reported in patent US20020197261A1, “Therapeutic agent/ligand conjugate compositions, their methods of synthesis and use” (priority 2001, published 2002).

System: A431 cells
Assay: MTT cytotoxicity, 6-hour pretreatment system
Assay type: cell-based
Conditions: Homo sapiens, A-431, read-out: IC50 (50% growth inhibition), 6 hours exposure, washing, additional 72 hours incubation
Method: One hundred microliter of growth medium suspending 1000-2000 cells per well was plated out in 96-well plates and incubated for 2 days to allow the cells to attach. Various dilutions of the drug or conjugates were added to each well and the plates were incubated for 72 hours at 37° C. Alternatively, a 6-hour pretreatment protocol was used. Cells were exposed to various concentrations of the drug or conjugate for 6 hours at 37 ° C., and then washed twice with the fresh culture medium. The cells were incubated for additional 72 hours. At the end of the incubation period, twenty microliters of MTT solution from Promega Cell Proliferation Assay kit (Madison, Wis.) were added to the wells. The microplates were then incubated for 1 hour at 37° C. Absorbance was measured at 490 nm using a microplate reader (Molecular Devices Corp, Sunnyvale, Calif.). The data reported represent the means of quadruplicate measurement and the standard errors of the mean were less than 15%.

Structure (SMILES): COc1cccc2c1C(=O)c1c(O)c3c(c(O)c1C2=O)C[C@@](O)(C(=O)CO)C[C@@H]3O[C@H]1C[C@H](N)[C@H](O)[C@H](C)O1 [Adr, Adriamycin]
- IC50: 17.7 µM
